From ChEMBL document CHEMBL4184210, “Optimization of novel monobactams with activity against carbapenem-resistant Enterobacteriaceae - Identification of LYS228” (Bioorg Med Chem Lett, 2018) come the findings set out here.

Converted amounts (≈) assume the structure as drawn. Some results are limits rather than exact numbers.

Data set [1] deals with Escherichia coli. Put plainly: Antimicrobial activity against Escherichia coli expressing beta-lactamase KPC-2 by CLSI broth microdilution method. In kind it is functional. For orientation: Dilution methods test growth across graded concentrations, often in twofold steps.
For data set [2], the system named is Escherichia coli. Put plainly: microbe, parasite or virus in culture.
Description: Antimicrobial activity against wild type Escherichia coli by CLSI broth microdilution method
The test system of data set [3] is Escherichia coli. Put plainly: microbe, parasite or virus in culture. The source holds these as a separate data set.
Description: Antimicrobial activity against Escherichia coli expressing beta-lactamase CTXM-15 by CLSI broth microdilution method
The test system of data set [4] is Escherichia coli. Description: microbe, parasite or virus in culture. The source holds these as a separate data set.
Description: Antimicrobial activity against Escherichia coli expressing beta-lactamase SHV-12 by CLSI broth microdilution method
Data set [5] relates to Escherichia coli. Put plainly: microbe, parasite or virus in culture. The source holds these as a separate data set.
Description: Antimicrobial activity against Escherichia coli expressing beta-lactamase TEM-10 by CLSI broth microdilution method
Data set [6] has as its system Escherichia coli. Description: microbe, parasite or virus in culture. This is another data set of the same source.
Description: Antimicrobial activity against Escherichia coli expressing beta-lactamase AmpC by CLSI broth microdilution method
For data set [7], the system named is Escherichia coli. Description: microbe, parasite or virus in culture. This is another data set of the same source.
Description: Antimicrobial activity against Escherichia coli expressing beta-lactamase CMY-2 by CLSI broth microdilution method
Data set [8] can be described thus: Chemical stability in pH 7.4 potassium phosphate buffer assessed as half life for compound hydrolysis at 37 degC by UPLC and mass spectrometry. The class given is physicochemical.

In the case of `Nc1nc(/C(=N/OC2(C(=O)O)CC2)C(=O)N[C@@H]2C(=O)N(S(=O)(=O)O)[C@@H]2Cn2cncn2)cs1` (stereo in doubt), the MIC against Escherichia coli [1] turned out to be 0.25 µg/mL (≈ 0.5 µM); with Escherichia coli [2], 0.125 µg/mL (≈ 0.25 µM); with Escherichia coli [3] it was 0.125 µg/mL (≈ 0.25 µM); with Escherichia coli [4], 1 µg/mL (≈ 2 µM); against Escherichia coli [5], 0.5 µg/mL (≈ 0.999 µM); in the data set with Escherichia coli [6], 1 µg/mL (≈ 2 µM). For the same molecule, in the data set on Escherichia coli [7], the MIC turned out to be 1 µg/mL (≈ 2 µM).

As a reminder, the half-life is the time in which the quantity being followed falls by half. Consider `CC(C)(O/N=C(\C(=O)N[C@@H]1C(=O)N(S(=O)(=O)O)[C@@H]1Cn1ncnc1CN)c1csc(N)n1)C(=O)O` (stereo in doubt), for which the MIC with Escherichia coli [1] turned out to be 4 µg/mL (≈ 7.53 µM); against Escherichia coli [2], 2 µg/mL (≈ 3.76 µM); against Escherichia coli [3], 2 µg/mL (≈ 3.76 µM); in the data set on Escherichia coli [4], 4 µg/mL (≈ 7.53 µM); with Escherichia coli [5] it was 4 µg/mL (≈ 7.53 µM); with Escherichia coli [6], 8 µg/mL (≈ 15.1 µM). For the same molecule, the MIC in the data set on Escherichia coli [7] amounted to 8 µg/mL (≈ 15.1 µM). The half-life in data set [8] was above 37 h.

In the case of `CC(C)(O/N=C(\C(=O)N[C@@H]1C(=O)N(S(=O)(=O)O)[C@@H]1CN1C[C@@H](CO)OC1=O)c1csc(N)n1)C(=O)O` (stereo in doubt), the MIC was 32 µg/mL (≈ 58.1 µM) in the data set with Escherichia coli [1]; 16 µg/mL (≈ 29.1 µM) in the data set on Escherichia coli [2]; 16 µg/mL (≈ 29.1 µM) against Escherichia coli [3]; 32 µg/mL (≈ 58.1 µM) in the data set with Escherichia coli [4]; 64 µg/mL (≈ 116 µM) against Escherichia coli [5]; 32 µg/mL (≈ 58.1 µM) against Escherichia coli [6]. This molecule came in with an MIC against Escherichia coli [7] of 16 µg/mL (≈ 29.1 µM). Also, the half-life in data set [8] is above 37 h.

`CC(C)(O/N=C(\C(=O)N[C@@H]1C(=O)N(S(=O)(=O)O)[C@@H]1Cn1cc(CCN)nn1)c1csc(N)n1)C(=O)O` (stereo in doubt): the MIC against Escherichia coli [1] was determined as 2 µg/mL (≈ 3.67 µM); with Escherichia coli [2], 1 µg/mL (≈ 1.83 µM); in the data set on Escherichia coli [3] it was 1 µg/mL (≈ 1.83 µM); in the data set with Escherichia coli [4], 4 µg/mL (≈ 7.33 µM); with Escherichia coli [5] it was 2 µg/mL (≈ 3.67 µM); against Escherichia coli [6], 2 µg/mL (≈ 3.67 µM). In the data set on Escherichia coli [7], this molecule returned an MIC of 4 µg/mL (≈ 7.33 µM). Further, in data set [8], the half-life was above 37 h.

With `CC(C)(O/N=C(\C(=O)N[C@@H]1C(=O)N(S(=O)(=O)O)[C@@H]1CN1C[C@H](CNC(=N)N)OC1=O)c1csc(N)n1)C(=O)O` (stereo in doubt), the MIC against Escherichia coli [1] was 16 µg/mL (≈ 27 µM); in the data set with Escherichia coli [2] it was 8 µg/mL (≈ 13.5 µM); against Escherichia coli [3] it was 8 µg/mL (≈ 13.5 µM); in the data set with Escherichia coli [4], 16 µg/mL (≈ 27 µM); against Escherichia coli [5], above 64 µg/mL; with Escherichia coli [6], 16 µg/mL (≈ 27 µM). Moreover, the MIC in the data set with Escherichia coli [7] amounted to 32 µg/mL (≈ 54.1 µM). The half-life in data set [8] is above 37 h.

As to `CC(C)(O/N=C(\C(=O)N[C@@H]1C(=O)N(S(=O)(=O)O)[C@@H]1CN1C[C@H](CO)OC1=O)c1csc(N)n1)C(=O)O` (stereo in doubt), the MIC in the data set on Escherichia coli [1] was 4 µg/mL (≈ 7.27 µM); against Escherichia coli [2], 2 µg/mL (≈ 3.63 µM); in the data set on Escherichia coli [3], 1 µg/mL (≈ 1.82 µM); against Escherichia coli [4], 2 µg/mL (≈ 3.63 µM); in the data set on Escherichia coli [5] it was above 64 µg/mL; against Escherichia coli [6] it was 2 µg/mL (≈ 3.63 µM). Further, the MIC against Escherichia coli [7] was determined as 4 µg/mL (≈ 7.27 µM). In addition, the half-life in data set [8] was above 37 h.

`CC(C)(O/N=C(\C(=O)N[C@@H]1C(=O)N(S(=O)(=O)O)[C@@H]1CN1C[C@H](CN)OC1=O)c1csc(N)n1)C(=O)O` (stereo in doubt): the MIC against Escherichia coli [1] came out at 1 µg/mL (≈ 1.82 µM); with Escherichia coli [2], 1 µg/mL (≈ 1.82 µM); against Escherichia coli [3] it was 1 µg/mL (≈ 1.82 µM); against Escherichia coli [4] it was 1 µg/mL (≈ 1.82 µM); in the data set on Escherichia coli [5] it was 8 µg/mL (≈ 14.6 µM); against Escherichia coli [6] it was 1 µg/mL (≈ 1.82 µM). This molecule showed an MIC against Escherichia coli [7] of 2 µg/mL (≈ 3.64 µM). For the same molecule, in data set [8], the half-life is above 37 h.

On to `CC(C)(O/N=C(\C(=O)N[C@@H]1C(=O)N(S(=O)(=O)O)[C@@H]1Cn1cc(CO)nn1)c1csc(N)n1)C(=O)O` (stereo in doubt), for which the MIC against Escherichia coli [1] was found to be 4 µg/mL (≈ 7.51 µM); in the data set with Escherichia coli [2], 0.5 µg/mL (≈ 0.939 µM); with Escherichia coli [3] it was 1 µg/mL (≈ 1.88 µM); against Escherichia coli [4], 16 µg/mL (≈ 30 µM); against Escherichia coli [5] it was 8 µg/mL (≈ 15 µM); against Escherichia coli [6], 4 µg/mL (≈ 7.51 µM). For the same molecule, in the data set on Escherichia coli [7], the MIC turned out to be 4 µg/mL (≈ 7.51 µM). The half-life in data set [8] is above 37 h.

In the case of `Nc1nc(/C(=N/OCC(=O)O)C(=O)N[C@@H]2C(=O)N(S(=O)(=O)O)[C@@H]2Cn2cncn2)cs1` (stereo in doubt), the MIC is 0.5 µg/mL (≈ 1.05 µM) in the data set with Escherichia coli [1]; 0.125 µg/mL (≈ 0.263 µM) with Escherichia coli [2]; 0.25 µg/mL (≈ 0.527 µM) in the data set with Escherichia coli [3]; 16 µg/mL (≈ 33.7 µM) against Escherichia coli [4]; 1 µg/mL (≈ 2.11 µM) against Escherichia coli [5]; 16 µg/mL (≈ 33.7 µM) with Escherichia coli [6]. Moreover, in the data set with Escherichia coli [7], the MIC was 8 µg/mL (≈ 16.9 µM).

For `CC(C)(O/N=C(\C(=O)N[C@@H]1C(=O)N(S(=O)(=O)O)[C@@H]1Cn1ncnc1CNC(=N)N)c1csc(N)n1)C(=O)O` (stereo in doubt), the MIC came to 32 µg/mL (≈ 55.8 µM) with Escherichia coli [1]; 16 µg/mL (≈ 27.9 µM) against Escherichia coli [2]; 16 µg/mL (≈ 27.9 µM) in the data set on Escherichia coli [3]; 16 µg/mL (≈ 27.9 µM) in the data set on Escherichia coli [4]; 16 µg/mL (≈ 27.9 µM) with Escherichia coli [5]; 32 µg/mL (≈ 55.8 µM) with Escherichia coli [6]. This molecule also yielded an MIC against Escherichia coli [7] of 32 µg/mL (≈ 55.8 µM). Besides, in data set [8], the half-life is above 37 h.

Turning to `Nc1nc(/C(=N/OC2(C(=O)O)CCC2)C(=O)N[C@@H]2C(=O)N(S(=O)(=O)O)[C@@H]2Cn2cncn2)cs1` (stereo in doubt), the MIC against Escherichia coli [1] is 1 µg/mL (≈ 1.94 µM); in the data set with Escherichia coli [2], 1 µg/mL (≈ 1.94 µM); against Escherichia coli [3], 0.5 µg/mL (≈ 0.972 µM); against Escherichia coli [4], 1 µg/mL (≈ 1.94 µM); with Escherichia coli [5], 4 µg/mL (≈ 7.77 µM); against Escherichia coli [6] it was 2 µg/mL (≈ 3.89 µM). This molecule also returned an MIC against Escherichia coli [7] of 4 µg/mL (≈ 7.77 µM).
